# Values of other authors in PMC6929995, “Rod-shape theranostic nanoparticles facilitate antiretroviral drug biodistribution and activity in human immunodeficiency virus susceptible cells and tissues” (Theranostics, 2020).
# Test system: HIV-1
structure (smiles),measurement,value
"Cc1cc(/C=C/C#N)cc(C)c1Nc1ccnc(Nc2ccc(C#N)cc2)n1 [RPV, rilpivirine]",potency,sub-nanomolar range
